Source: patent publication US20070167377A1, “Inhibitors of glycinamide ribonucleotide transformylase” (priority 2002, published 2007)
“Also recorded” adds a separate entry of the source. Where two headings read alike, the source gives them in different places.

Legend:
[1] = molecular target: T1, E. coli GAR Tfase (Escherichia coli, UniProt P08179); test: E. coli GAR Tfase inhibition; assay type: biochemical; conditions: for fold less potent than the corresponding monoglutamate: α-pentaglutamate vs monoglutamate (25 vs 3, 26 vs 15)
Protocol: (§1) GAR and AICAR Tfase inhibition studies were conducted as previously detailed^28 with the exception that the AICAR Tfase inhibition was conducted in the absence of 5 mM β-mercaptoethanol and screened with 10 nM enzyme, […] inhibitor and […] of cofactor. The DHFR inhibition study was conducted as previously detailed with 10 nM enzyme, […] H2F, […] NADPH and […] inhibitor.
The Ki values for the folate analogues were measured as previously described (Boger, D. L., et al., Bioorg. Med. Chem. 1997, 5, 1817-1830). Briefly, each compound was dissolved in dimethyl sulfoxide (DMSO) and then diluted in assay buffer. […] Thus, all assays were conducted by mixing 10 μM 10-formyl-5,8-dideazafolate (fDDF), 20 μM inhibitor in total volume of 1 mL buffer (0.1 M HEPES, pH 7.5) at 26° C., and the reaction initiated by the addition of 76 nM E. coli or human GAR Tfase. The assay monitors the deformylation of fDDF (Δε=18.9 mM^−1 cm^−1 at 295 nm) resulting from the transfer of the formyl group to β-GAR.

[2] = test system: CCRF-CEM cell line; test: CCRF-CEM cytotoxic assay; assay type: cell-based, human; conditions: for IC50: Homo sapiens
Protocol: (§2) The cytotoxic activity of the compounds was measured using CCRF-CEM human leukemia cells, as described previously (Boger, D. L., et al., Bioorg. Med. Chem. 1997, 5, 1847-1852). Two mutant cell lines, CCRF-CEM/MTX and CCRF-CEM/FPGS^− were used to determine the dependence on the reduced folate active transport system and folylpolyglutamate synthetase (FPGS), respectively (Jansen, G., et al., Cancer Res. 1989, 49, 2455-2459).

[3] = molecular target: human AICAR Tfase (Homo sapiens, UniProt P31939); test: AICAR Tfase inhibition; assay type: biochemical; conditions: for fold enhanced binding affinity / more potent than the corresponding monoglutamate: 21 vs 3, 22 vs 15, 26 vs 15
Protocol: as §1

[4] = molecular target: T2, recombinant human GAR Tfase (rhGAR Tfase) (Homo sapiens, UniProt P22102); test: Recombinant human GAR Tfase inhibition; assay type: biochemical; conditions: for potency increase of γ-pentaglutamate over monoglutamate: 21 vs 3, 22 vs 15
T2 construct: includes residues 808-1010 from the human trifunctional enzyme (purD-purM-purN); hexa-histidine (C); made in house; host or cells: E. coli BL21 (DE3) Gold, pet22b vector
T2 sequence (P22102 808-1010): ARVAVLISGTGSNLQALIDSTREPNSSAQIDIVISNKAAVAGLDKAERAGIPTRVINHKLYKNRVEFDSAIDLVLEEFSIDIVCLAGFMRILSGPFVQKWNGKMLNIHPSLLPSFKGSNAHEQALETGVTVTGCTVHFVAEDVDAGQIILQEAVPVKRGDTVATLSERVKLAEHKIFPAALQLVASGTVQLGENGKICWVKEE
Protocol: The gene was subcloned into the pet22b vector using the Ndel/Xhol cloning site with ahexa-histidine tag at the C-terminus. The plasmid was transformed into the E. coli expression strain BL21 (DE3) Gold. […] The purified protein was used in the inhibition assays, cytotoxic assays and crystallization experiments.
Briefly, each compound was dissolved in dimethyl sulfoxide (DMSO) and then diluted in assay buffer.

[5] = molecular target: T1, E. coli GAR Tfase; conditions: 10-formyl-TDAF, earlier studies; cited from earlier work
[6] = test system: CCRF-CEM cell line; conditions: earlier studies; cited from earlier work
[7] = earlier studies; cited from earlier work
[8] = test system: CCRF-CEM/MTX cell line; test: Cytotoxic assay, reduced folate carrier deficient mutant; assay type: cell-based, human; conditions: impaired reduced folate carrier; for IC50: Homo sapiens
Protocol: as §2

[9] = test system: CCRF-CEM/FPGS^− cell line; test: Cytotoxic assay, FPGS deficient mutant; assay type: cell-based, human; conditions: lacks folylpolyglutamate synthase
Protocol: as §2

[10] = Chemical stability; assay type: physicochemical
[11] = molecular target: thymidylate synthetase (TS) (Homo sapiens, UniProt P04818); test: Thymidylate synthetase inhibition; assay type: biochemical; conditions: TS
[12] = molecular target: DHFR (Escherichia coli, UniProt P0ABQ4); test: DHFR inhibition (101, 102); assay type: biochemical; conditions: DHFR
[13] = purines (hypoxanthine) absent in the media
[14] = media supplemented with a purine

For `Nc1nc(N)c(CCCC(C=O)c2ccc(C(=O)N[C@@H](CCC(=O)N[C@@H](CCC(=O)N[C@@H](CCC(=O)N[C@@H](CCC(=O)N[C@@H](CCC(=O)O)C(=O)O)C(=O)O)C(=O)O)C(=O)O)C(=O)O)cc2)c(=O)[nH]1` (stereo partly drawn) [Compound 21, N-{4-[5-(2,4-Diamino-6(1H)-pyrimidinon-5-yl)-1-formyl-but-2-yl]benzoyl}-L-γ-glutamyl-L-γ-glutamyl-L-γ-glutamyl-L-γ-glutamyl-L-γ-glutamic Acid], the “inhibition of / binding affinity for E. coli GAR Tfase (in words)” value (shortened to “inhibition of / binding affinity”) [1] was “only marginal enhanced binding affinity”, the “cytotoxic activity (in words)” value [2] was “little or no cytotoxic activity” and the “fold enhanced binding affinity / more potent than the corresponding monoglutamate” value [3] was 4 fold. The “potency increase of γ-pentaglutamate over monoglutamate” value [4] was “did not enhance”.

In the case of `Nc1nc2ccc(CC(C=O)c3ccc(C(=O)N[C@@H](CCC(=O)O)C(=O)O)cc3)cc2c(=O)[nH]1` (some centres unmarked) [Compound 103, 10-formyl-5,8,10-trideazafolic acid], the Ki [5] is given as 260 nM, the “cytotoxic activity (in words)” value [6] is given as “failed to exhibit effective cytotoxic activity” and the “chemical stability (in words)” value [7] is given as “poor stability; also recorded: facile oxidative decarbonylation”.

For `CN(C)N=CC(CCCc1c(N)nc(N)[nH]c1=O)c1ccc(C(=O)N[C@@H](CCC(=O)O)C(=O)O)cc1` (stereo partly drawn) [Compound 15, N{4-[5-(2,4-Diamino-6(1H)-pyrimidinon-5-yl)-1-(dimethylhydrazono)pent-2-yl]benzoyl}-L-glutamic Acid], the IC50 [8] was over 100000 nM, the “cytotoxic activity (in words)” value [8] was “lack of cytotoxic activity” and the “fold less effective than 3” value ([3]; 15 vs 3) was 30 fold. For the same molecule, the Ki ([4]; rhGAR Tfase, read-out: Ki) was 170 nM and the “cytotoxic activity (in words)” value [9] was “inactivity; also recorded: lost cytotoxic activity”.

For `Nc1nc(N)c(CCCC(CO)c2ccc(C(=O)N[C@@H](CCC(=O)O)C(=O)O)cc2)c(=O)[nH]1` (stereo partly drawn) [Compound 17, N-{4-[5-(2,4-Diamino-6(1H)-pyrimidinon-5-yl)-1-hydroxypent-2-yl]benzoyl}-L-glutamic Acid], the IC50 [8] was over 100000 nM, the “cytotoxic activity (in words)” value [8] was “lack of cytotoxic activity” and the “inhibition of / binding affinity” value [1] was “significantly less active”. For the same molecule, the “inhibition of AICAR Tfase (in words)” value [3] was “inactive” and the “cytotoxic activity (in words)” value [9] was “inactivity”.

For `Nc1nc(N)c(CCCC(C=O)c2ccc(C(=O)N[C@@H](CCC(=O)O)C(=O)O)cc2)c(=O)[nH]1` (some centres unmarked) [Compound 3], the IC50 [8] was over 100000 nM, the “cytotoxic activity (in words)” value [8] was “lack of cytotoxic activity; also recorded: lost activity” and the “chemical stability (in words)” value [10] was “chemical instability; also recorded: facile oxidative decarbonylation”. The Ki ([1]; E. coli GAR Tfase) was 6000 nM, the IC50 [2, 13] was 60 nM and the “cytotoxic activity (in words)” value [2, 14] was “no activity”. The Ki [4] was 14 nM and the “cytotoxic activity (in words)” value [9] was “inactivity; also recorded: lost cytotoxic activity”.

In the case of `Nc1nc(N)c(CCCC(C=O)c2ccc(C(=O)N[C@@H](CCC(=O)O)C(=O)N[C@@H](CCC(=O)O)C(=O)N[C@@H](CCC(=O)O)C(=O)N[C@@H](CCC(=O)O)C(=O)N[C@@H](CCC(=O)O)C(=O)O)cc2)c(=O)[nH]1` (stereo partly drawn) [Compound 25, N{4-[5-(2,4-Diamino-6(1H)-pyrimidinon-5-yl)-1-formyl-but-2-yl]benzoyl}-L-α-glutamyl-L-α-glutamyl-L-α-glutamyl-L-α-glutamyl-L-α-glutamic Acid], the “fold less potent than the corresponding monoglutamate” value [1] is reported as 3 fold, the “cytotoxic activity (in words)” value [2] is reported as “little or no cytotoxic activity” and the “fold less potent than the aldehyde monoglutamate 3” value ([3]; 25 vs 3) is reported as 16 fold.

With `CN(C)N=CC(CCCc1c(N)nc(N)[nH]c1=O)c1ccc(C(=O)N[C@@H](CCC(=O)O)C(=O)N[C@@H](CCC(=O)O)C(=O)N[C@@H](CCC(=O)O)C(=O)N[C@@H](CCC(=O)O)C(=O)N[C@@H](CCC(=O)O)C(=O)O)cc1` (stereo partly drawn) [Compound 26, N{4-[5-(2,4-Diamino-6(1H)-pyrimidinon-5-yl)-1-(dimethylhydrazono)pent-2-yl]benzoyl}-L-α-glutamyl-L-α-glutamyl-L-α-glutamyl-L-α-glutamyl-L-α-glutamic Acid] the “orders of magnitude less potent than the corresponding γ-pentaglutamate 22” value ([1]; 26 vs 22) was 1-2 orders of magnitude, the “fold less potent than the corresponding monoglutamate” value [1] was 4 fold and the “cytotoxic activity (in words)” value [2] was “little or no cytotoxic activity”. For the same molecule, the “fold enhanced binding affinity / more potent than the corresponding monoglutamate” value [3] was 4 fold and the “orders of magnitude less potent than the corresponding γ-pentaglutamate 22” value ([3]; 26 vs 22) was 1-2 orders of magnitude.

Work on `Nc1nc(N)c(CCCCc2ccc(C(=O)N[C@@H](CCC(=O)O)C(=O)O)cc2)c(=O)[nH]1` [DDACTHF, reference compound] yielded an IC50 ([2]; purines absent in the media) of 2700 nM.

For `Nc1nc(N)c(CCCC(=O)c2ccc(C(=O)N[C@@H](CCC(=O)O)C(=O)O)cc2)c(=O)[nH]1` [Compound 14, N-{4-[4-(2,4-Diamino-6(1H)-pyrimidinon-5-yl)-1-oxo-but-1-yl]benzoyl}-L-glutamic Acid], the IC50 [8] was over 100000 nM, the “cytotoxic activity (in words)” value [8] was “lack of cytotoxic activity” and the “inhibition of / binding affinity” value [1] was “significantly less active”. The IC50 ([2]; purines absent in the media) was under 200 nM, the “inhibition of AICAR Tfase (in words)” value [3] was “inactive” and the “cytotoxic activity (in words)” value [9] was “inactivity”.

In the case of `Nc1nc(N)c(CCCC(c2ccc(C(=O)N[C@@H](CCC(=O)O)C(=O)O)cc2)C(O)C(F)(F)F)c(=O)[nH]1` (stereo partly drawn) [Compound 102, N-{4-[4-(2,4-Diamino-6-oxo-1,6-dihydropyrimidin-5-yl)-1-(2,2,2-trifluoro-1-hydroxy-ethyl)butyl]benzoyl}-L-glutamic acid], the “cytotoxic activity (in words)” value [8] is reported as “lost activity”, the IC50 ([2]; purines absent in the media) is reported as 1100 nM and the “inhibition of AICAR Tfase (in words)” value [3] is reported as “inactivity”. The Ki ([3]; AICAR Tfase) was over 100000 nM, the Ki [11] was over 100000 nM and the “times less potent than 10-CF3CO-DDACTHF” value ([4]; comparator 101) was “ca. 50 times”. For the same molecule, the Ki ([4]; rhGAR Tfase, read-out: Ki) was 900 nM, the “cytotoxic activity (in words)” value [9] was “lacked or lost activity” and the Ki [12] was over 100000 nM.

With `Nc1nc2c(c(=O)[nH]1)C[C@@H](CCc1ccc(C(=O)N[C@@H](CCC(=O)O)C(=O)O)cc1)CN2` [Lometrexol, (6R)-5,10-dideazatetrahydrofolate, reference compound] the “cytotoxic activity (in words)” value [8] was “lost activity”, the IC50 [2, 13] was 230 nM and the IC50 ([2]; purines absent in the media) was 150 nM. For the same molecule, the “cytotoxic activity (in words)” value [2, 14] was “no activity” and the “cytotoxic activity (in words)” value [9] was “lacked or lost activity”.

In the case of `CN(C)N=CC(CCCc1c(N)nc(N)[nH]c1=O)c1ccc(C(=O)N[C@@H](CCC(=O)N[C@@H](CCC(=O)N[C@@H](CCC(=O)N[C@@H](CCC(=O)N[C@@H](CCC(=O)O)C(=O)O)C(=O)O)C(=O)O)C(=O)O)C(=O)O)cc1` (stereo partly drawn) [Compound 22, N{4-[5-(2,4-Diamino-6(1H)-pyrimidinon-5-yl)-1-(dimethylhydrazono)pent-2-yl]benzoyl}-L-γ-glutamyl-L-γ-glutamyl-L-γ-glutamyl-L-γ-glutamyl-L-γ-glutamic Acid], the “inhibition of / binding affinity” value [1] is reported as “only marginal enhanced binding affinity”, the “cytotoxic activity (in words)” value [2] is reported as “little or no cytotoxic activity” and the “fold enhanced binding affinity / more potent than the corresponding monoglutamate” value [3] is reported as 140 fold. For the same molecule, the “potency increase of γ-pentaglutamate over monoglutamate” value [4] was 5 fold.

With `Nc1nc(N)c(CCCC(C(=O)C(F)(F)F)c2ccc(C(=O)O)cc2)c(=O)[nH]1` (centres unmarked) [Compound 111, 4-[4-(2,4-diamino-6-oxo-1,6-dihydropyrimidin-5-yl)-1-(2,2,2-trifluoro-acetyl)butyl]benzoic acid] the “inhibition of GAR Tfase (in words)” value [4] was “lack of inhibition”.
